# In paper PMC10824666 (Nature Cancer, 2023):
# Where two headings read alike, the source gives them in different places.
# Tests used:
# Experiment in all cases: biochemical
# Parameters in all cases: Eurofins DiscoverX kinase panel, competitive binding assay at 1 uM, percent of DMSO control
# [1] = target: T1, PAK 2 (Homo sapiens, UniProt Q13177); details: competitive binding, percent of DMSO control
# T1 construct: gene PAK2
# Outline: (§1)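 Competitive binding assay across a 96-kinase panel with KIF18A compounds at 1 µM; values given as percentage of control (POC), single experiment.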
# [2] = target: MAP4K1 (Homo sapiens, UniProt Q92918); details: competitive binding, percent of DMSO control
# Chain of MAP4K1 (Q92918 whole entry): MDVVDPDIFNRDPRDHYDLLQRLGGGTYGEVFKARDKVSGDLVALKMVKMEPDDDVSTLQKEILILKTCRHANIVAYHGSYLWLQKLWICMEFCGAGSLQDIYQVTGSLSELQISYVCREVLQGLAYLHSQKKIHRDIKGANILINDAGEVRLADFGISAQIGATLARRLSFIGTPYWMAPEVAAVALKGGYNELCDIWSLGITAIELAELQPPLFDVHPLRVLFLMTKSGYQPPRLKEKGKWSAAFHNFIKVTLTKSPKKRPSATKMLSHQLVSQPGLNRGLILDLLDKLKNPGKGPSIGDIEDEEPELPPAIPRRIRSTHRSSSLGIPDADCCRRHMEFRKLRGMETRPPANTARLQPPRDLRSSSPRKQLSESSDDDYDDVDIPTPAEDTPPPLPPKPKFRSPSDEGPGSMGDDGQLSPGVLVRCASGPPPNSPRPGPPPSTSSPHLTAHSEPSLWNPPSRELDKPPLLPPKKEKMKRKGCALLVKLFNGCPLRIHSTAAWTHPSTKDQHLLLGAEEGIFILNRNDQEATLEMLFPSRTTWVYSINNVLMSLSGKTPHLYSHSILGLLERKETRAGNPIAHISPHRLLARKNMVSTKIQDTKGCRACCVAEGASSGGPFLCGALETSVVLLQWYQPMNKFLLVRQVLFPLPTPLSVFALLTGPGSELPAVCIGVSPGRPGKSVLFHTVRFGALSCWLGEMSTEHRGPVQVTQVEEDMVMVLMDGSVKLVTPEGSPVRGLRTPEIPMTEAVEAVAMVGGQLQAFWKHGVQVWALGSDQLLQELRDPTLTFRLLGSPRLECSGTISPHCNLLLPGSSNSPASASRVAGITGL
# Outline: as §1
# [3] = target: DYRK1a (Homo sapiens, UniProt Q13627); details: competitive binding, percent of DMSO control
# Outline: as §1
# [4] = target: EGFR (Homo sapiens, UniProt P00533); details: competitive binding, percent of DMSO control
# Chain of EGFR (P00533 whole entry): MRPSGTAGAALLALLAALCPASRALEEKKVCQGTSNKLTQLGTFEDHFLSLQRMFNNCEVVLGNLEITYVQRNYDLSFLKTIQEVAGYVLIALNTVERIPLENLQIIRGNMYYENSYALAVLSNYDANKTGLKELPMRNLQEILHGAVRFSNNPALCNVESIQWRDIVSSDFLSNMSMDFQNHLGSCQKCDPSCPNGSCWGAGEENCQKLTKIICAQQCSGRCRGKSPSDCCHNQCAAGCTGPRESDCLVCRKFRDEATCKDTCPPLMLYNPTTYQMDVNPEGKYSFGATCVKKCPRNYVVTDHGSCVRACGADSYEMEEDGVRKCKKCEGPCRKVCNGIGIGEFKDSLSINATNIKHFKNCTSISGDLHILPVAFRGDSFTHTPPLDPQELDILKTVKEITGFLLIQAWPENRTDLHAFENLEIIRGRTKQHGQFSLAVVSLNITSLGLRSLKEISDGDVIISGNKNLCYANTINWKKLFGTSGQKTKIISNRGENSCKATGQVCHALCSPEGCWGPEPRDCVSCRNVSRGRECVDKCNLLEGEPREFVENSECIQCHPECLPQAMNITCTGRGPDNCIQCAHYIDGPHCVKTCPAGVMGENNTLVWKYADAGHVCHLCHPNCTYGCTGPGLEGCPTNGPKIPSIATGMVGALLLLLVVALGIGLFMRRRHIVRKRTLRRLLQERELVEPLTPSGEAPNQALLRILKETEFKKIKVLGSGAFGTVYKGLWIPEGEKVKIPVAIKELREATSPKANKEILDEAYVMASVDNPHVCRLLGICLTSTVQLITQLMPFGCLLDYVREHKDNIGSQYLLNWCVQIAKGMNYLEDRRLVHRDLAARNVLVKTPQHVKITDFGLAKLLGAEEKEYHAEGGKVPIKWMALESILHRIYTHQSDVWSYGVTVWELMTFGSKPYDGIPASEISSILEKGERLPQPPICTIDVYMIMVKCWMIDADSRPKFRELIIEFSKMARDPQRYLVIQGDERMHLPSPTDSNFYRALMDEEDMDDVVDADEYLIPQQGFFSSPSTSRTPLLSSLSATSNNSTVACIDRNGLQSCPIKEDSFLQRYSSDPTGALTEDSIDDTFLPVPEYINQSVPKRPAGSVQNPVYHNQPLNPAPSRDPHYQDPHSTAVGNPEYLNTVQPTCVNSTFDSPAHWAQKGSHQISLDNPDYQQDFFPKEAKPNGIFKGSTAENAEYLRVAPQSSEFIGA
# Outline: as §1
# [5] = target: NEK6 (Homo sapiens, UniProt Q9HC98); details: competitive binding, percent of DMSO control
# Chain of NEK6 (Q9HC98 whole entry): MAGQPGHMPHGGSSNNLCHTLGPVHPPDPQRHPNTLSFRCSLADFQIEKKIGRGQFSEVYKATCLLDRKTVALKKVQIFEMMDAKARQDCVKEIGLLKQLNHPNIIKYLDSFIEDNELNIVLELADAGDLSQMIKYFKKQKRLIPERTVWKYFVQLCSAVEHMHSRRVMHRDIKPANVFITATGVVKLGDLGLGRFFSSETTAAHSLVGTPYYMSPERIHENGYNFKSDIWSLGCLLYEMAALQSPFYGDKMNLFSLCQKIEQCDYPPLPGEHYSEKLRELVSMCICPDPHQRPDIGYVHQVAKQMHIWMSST
# Outline: as §1
# [6] = target: T2, p38 α (Homo sapiens, UniProt Q16539); details: competitive binding, percent of DMSO control
# T2 construct: gene MAPK14
# T2 sequence (Q16539 whole entry): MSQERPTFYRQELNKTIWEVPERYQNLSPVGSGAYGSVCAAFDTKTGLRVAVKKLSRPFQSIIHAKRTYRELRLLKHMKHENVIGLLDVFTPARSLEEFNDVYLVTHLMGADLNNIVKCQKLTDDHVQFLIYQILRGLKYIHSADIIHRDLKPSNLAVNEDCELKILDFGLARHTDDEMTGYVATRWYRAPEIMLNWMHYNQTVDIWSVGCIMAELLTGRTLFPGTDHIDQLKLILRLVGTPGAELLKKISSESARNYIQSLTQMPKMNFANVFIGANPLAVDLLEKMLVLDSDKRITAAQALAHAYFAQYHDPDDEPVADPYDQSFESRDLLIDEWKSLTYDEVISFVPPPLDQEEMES
# Outline: as §1
# [7] = target: FGFR1 (Homo sapiens, UniProt P11362); details: competitive binding, percent of DMSO control
# Outline: as §1
# [8] = target: T3, ROCK 2 (Homo sapiens, UniProt O75116); details: competitive binding, percent of DMSO control
# T3 construct: gene ROCK2
# T3 sequence (O75116 whole entry): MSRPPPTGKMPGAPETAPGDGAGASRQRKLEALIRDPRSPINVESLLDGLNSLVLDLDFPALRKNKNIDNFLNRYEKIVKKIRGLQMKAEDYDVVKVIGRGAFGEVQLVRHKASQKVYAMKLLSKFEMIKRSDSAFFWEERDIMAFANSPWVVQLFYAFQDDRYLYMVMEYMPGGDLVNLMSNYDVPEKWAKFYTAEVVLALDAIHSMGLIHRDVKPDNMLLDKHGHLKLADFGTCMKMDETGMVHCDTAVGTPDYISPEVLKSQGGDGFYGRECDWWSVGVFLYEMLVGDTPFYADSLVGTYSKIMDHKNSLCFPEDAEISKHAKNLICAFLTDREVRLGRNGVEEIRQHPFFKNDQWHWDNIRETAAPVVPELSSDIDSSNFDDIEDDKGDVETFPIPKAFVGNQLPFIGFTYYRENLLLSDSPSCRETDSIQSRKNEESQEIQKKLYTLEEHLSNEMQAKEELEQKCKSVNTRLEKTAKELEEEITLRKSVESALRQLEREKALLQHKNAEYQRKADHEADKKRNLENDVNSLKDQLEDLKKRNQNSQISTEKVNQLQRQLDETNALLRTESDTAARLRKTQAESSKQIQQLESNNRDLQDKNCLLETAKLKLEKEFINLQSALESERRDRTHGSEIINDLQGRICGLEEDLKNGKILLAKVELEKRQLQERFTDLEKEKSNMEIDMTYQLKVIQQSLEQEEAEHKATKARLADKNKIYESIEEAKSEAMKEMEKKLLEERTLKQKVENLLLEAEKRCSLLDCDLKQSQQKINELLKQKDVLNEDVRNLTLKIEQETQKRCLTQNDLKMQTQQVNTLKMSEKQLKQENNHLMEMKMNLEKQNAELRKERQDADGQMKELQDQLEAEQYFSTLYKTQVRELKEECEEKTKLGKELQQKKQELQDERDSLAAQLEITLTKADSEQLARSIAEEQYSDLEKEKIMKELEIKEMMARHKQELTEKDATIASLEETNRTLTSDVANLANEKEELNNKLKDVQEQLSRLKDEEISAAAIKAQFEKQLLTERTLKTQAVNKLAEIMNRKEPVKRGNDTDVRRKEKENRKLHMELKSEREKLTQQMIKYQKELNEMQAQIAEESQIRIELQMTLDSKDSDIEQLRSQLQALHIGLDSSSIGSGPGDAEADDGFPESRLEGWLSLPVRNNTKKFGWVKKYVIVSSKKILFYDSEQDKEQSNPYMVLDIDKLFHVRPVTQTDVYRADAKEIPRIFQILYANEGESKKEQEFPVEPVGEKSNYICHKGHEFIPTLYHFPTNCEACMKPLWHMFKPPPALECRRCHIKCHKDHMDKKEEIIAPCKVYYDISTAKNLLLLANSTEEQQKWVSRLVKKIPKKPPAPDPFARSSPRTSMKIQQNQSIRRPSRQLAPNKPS
# Outline: as §1
# [9] = target: EPHA2 (Homo sapiens, UniProt P29317); details: competitive binding, percent of DMSO control
# Chain of EPHA2 (P29317 whole entry): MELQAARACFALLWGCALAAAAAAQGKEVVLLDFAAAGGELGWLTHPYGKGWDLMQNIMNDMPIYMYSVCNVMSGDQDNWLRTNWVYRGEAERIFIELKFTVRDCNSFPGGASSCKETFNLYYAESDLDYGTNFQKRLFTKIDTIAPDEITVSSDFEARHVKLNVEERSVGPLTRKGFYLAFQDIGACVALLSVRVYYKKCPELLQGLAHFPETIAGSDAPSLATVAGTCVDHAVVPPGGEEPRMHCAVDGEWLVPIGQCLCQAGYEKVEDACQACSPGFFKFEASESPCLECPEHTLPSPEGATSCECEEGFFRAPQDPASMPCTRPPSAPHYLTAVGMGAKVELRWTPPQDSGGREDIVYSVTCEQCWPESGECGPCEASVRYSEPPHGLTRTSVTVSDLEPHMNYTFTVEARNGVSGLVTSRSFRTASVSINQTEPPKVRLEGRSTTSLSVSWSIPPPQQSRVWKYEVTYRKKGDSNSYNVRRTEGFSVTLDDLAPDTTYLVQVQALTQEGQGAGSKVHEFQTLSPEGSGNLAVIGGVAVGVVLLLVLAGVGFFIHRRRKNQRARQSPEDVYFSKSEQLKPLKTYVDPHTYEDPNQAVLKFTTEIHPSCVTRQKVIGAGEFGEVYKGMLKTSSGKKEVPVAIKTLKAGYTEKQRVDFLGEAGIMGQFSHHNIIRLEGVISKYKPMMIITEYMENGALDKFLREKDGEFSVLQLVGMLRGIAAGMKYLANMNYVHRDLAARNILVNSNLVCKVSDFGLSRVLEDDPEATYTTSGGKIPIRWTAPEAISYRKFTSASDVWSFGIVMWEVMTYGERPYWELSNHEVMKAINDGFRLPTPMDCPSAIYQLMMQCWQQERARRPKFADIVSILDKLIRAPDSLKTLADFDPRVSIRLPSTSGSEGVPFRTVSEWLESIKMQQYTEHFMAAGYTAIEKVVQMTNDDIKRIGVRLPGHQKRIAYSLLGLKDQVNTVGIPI
# Outline: as §1
# [10] = target: T4, PKA alpha (Homo sapiens, UniProt P17612); details: read-out: Kinome Profiling performed by Eurofins DiscoverX / AM-5308, 1.0 µM / POC; competitive binding, percent of DMSO control
# T4 construct: gene PRKACA
# Outline: as §1
# [11] = target: T5, PKR (Homo sapiens, UniProt P19525); details: read-out: Kinome Profiling performed by Eurofins DiscoverX / AM-5308, 1.0 µM / POC; competitive binding, percent of DMSO control
# T5 construct: gene EIF2AK2
# Outline: as §1
# [12] = read-out: Kinome Profiling performed by Eurofins DiscoverX / AM-1882, 1.0 µM / POC
# [13] = read-out: Kinome Profiling performed by Eurofins DiscoverX / AM-0277, 1.0 µM / POC
# [14] = read-out: Kinome Profiling performed by Eurofins DiscoverX / AM-5308, 1.0 µM / POC
smiles,measurement,setting,value
CC(C)(C)NS(=O)(=O)c1cccc(NC(=O)c2ccc(S(=O)(=O)NC(C)(C)C)cc2N2CCC3(CC2)CC3)c1 [AM-1882],remaining activity at 1 µM,[1]; [12],100%
same,remaining activity at 1 µM,[2]; [12],90%
same,remaining activity at 1 µM,[3]; [12],81%
same,remaining activity at 1 µM,[4]; [12],100%
same,remaining activity at 1 µM,[5]; [12],100%
same,remaining activity at 1 µM,[6]; [12],100%
same,remaining activity at 1 µM,[7]; [12],98%
same,remaining activity at 1 µM,[8]; [12],77%
same,remaining activity at 1 µM,[9]; [12],99.5%
CC(C)(CO)Nc1ccc(C(=O)Nc2cccc(S(=O)(=O)C3CCCC3)c2)c(N2CCC3(CC2)CC3)n1 [AM-0277],remaining activity at 1 µM,[1]; [13],100%
same,remaining activity at 1 µM,[2]; [13],88%
same,remaining activity at 1 µM,[3]; [13],100%
same,remaining activity at 1 µM,[4]; [13],93%
same,remaining activity at 1 µM,[5]; [13],94%
same,remaining activity at 1 µM,[6]; [13],100%
same,remaining activity at 1 µM,[7]; [13],94%
same,remaining activity at 1 µM,[8]; [13],100%
same,remaining activity at 1 µM,[9]; [13],80%
C[C@@H]1CN(c2cccc(NC(=O)c3ccc(NS(=O)(=O)CCO)cc3N3CCC4(CC3)CC4)n2)CCO1 [AM-5308],remaining activity at 1 µM,[1]; [14],66.5%
same,remaining activity at 1 µM,[2]; [14],98.5%
same,remaining activity at 1 µM,[3]; [14],100%
same,remaining activity at 1 µM,[4]; [14],83%
same,remaining activity at 1 µM,[10],100%
same,remaining activity at 1 µM,[5]; [14],95%
same,remaining activity at 1 µM,[11],90%
same,remaining activity at 1 µM,[6]; [14],89.5%
same,remaining activity at 1 µM,[7]; [14],94.5%
same,remaining activity at 1 µM,[8]; [14],97.5%
same,remaining activity at 1 µM,[9]; [14],92.5%
